Common to all, as to test: NCI tumour cell line growth inhibition, 48 h
In test [1] the test system is PC-3 prostate.
In test [2] the test system is T-47D breast.
Test [3] deals with NCI-H226 lung.
The test system of test [4] is DMS 273 small cell lung.
In test [5] the test system is HOP-18 NSCLC.
Test [6] has as its system M19-MEL melanoma.
Test [7] deals with P388 leukemia.
The subject of test [8] is P388/ADR leukemia.
For test [9], the system named is SN12K1 renal.
Test [10] concerns LXFL 529 NSCLC.

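Five compound concentrations were applied to cells in 96-well plates for 48 hours; endpoints were derived by simple linear interpolation of the resulting dose-response curve. At the TGI there is no net growth.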 A value given as a limit tells only on which side of the number the result lay.

Consider `COc1ccnc2c1C(=O)c1nc3ccccc3c3ccnc-2c13`, for which the TGI in [1] was found to be 1.81 µM; in test [2], 1.34 µM.

With `CCOC(=O)CC1CCN(C(=O)c2ccccc2)C2Cc3c([nH]c4ccccc34)C12C[N+](=O)[O-]` (configuration not stated), the TGI in test [3], in test [1] and in [2] was > 100 µM throughout.

Regarding `O=c1c(-c2ccccc2)c(SCCCN2CCN(c3cccc(Cl)c3)CC2)n(-c2ccccc2)c(=S)n1-c1ccccc1`, the TGI in [3] and in test [1] was > 100 µM throughout.

Take `CCOC(=O)c1csc(NC(=O)C(C)N2CCCCC2)n1` (configuration not stated): the TGI in [1] and in test [2] was > 100 µM throughout.

Consider `COC(=O)C1OC(Oc2cc(O)c3c(=O)cc(-c4ccc(O)cc4)oc3c2)C(O)C(O)C1O` (configuration not stated), for which the TGI in test [4], in test [5], in [6], in test [3], in test [7] and in [8] was > 100 µM in each case. Further, the TGI in [9] was > 100 µM.

Turning to `CCCCN1C=CN2c3nc4cc(C)c(C)cc4n3C(C(=O)OC)=C(C(=O)OC)C12` (configuration not stated), the TGI in test [4], in test [5], in [10] and in test [6] was > 100 µM throughout.

Turning to `CN(C)C(=O)OCOC(=O)N(C)C`, the TGI in test [4], in test [5], in test [6], in test [3], in test [7] and in test [8] was > 100 µM in each case. Also, the TGI in [9] was > 100 µM.

Values taken from PubChem BioAssay (NCI).
